# Measured values reported in publication PMC3805709 (Nature chemical biology, 2013).
# Columns and labels:
# CLC-ec1 [1] = molecular target: CLC-ec1 (Escherichia coli, UniProt P37019, E148A); assay: biochemical
# CLC-ec1 [2] = molecular target: CLC-ec1 (Escherichia coli, UniProt P37019); assay: biochemical
# CLC-ec1 (Escherichia coli, UniProt P37019), sequence (P37019 whole entry): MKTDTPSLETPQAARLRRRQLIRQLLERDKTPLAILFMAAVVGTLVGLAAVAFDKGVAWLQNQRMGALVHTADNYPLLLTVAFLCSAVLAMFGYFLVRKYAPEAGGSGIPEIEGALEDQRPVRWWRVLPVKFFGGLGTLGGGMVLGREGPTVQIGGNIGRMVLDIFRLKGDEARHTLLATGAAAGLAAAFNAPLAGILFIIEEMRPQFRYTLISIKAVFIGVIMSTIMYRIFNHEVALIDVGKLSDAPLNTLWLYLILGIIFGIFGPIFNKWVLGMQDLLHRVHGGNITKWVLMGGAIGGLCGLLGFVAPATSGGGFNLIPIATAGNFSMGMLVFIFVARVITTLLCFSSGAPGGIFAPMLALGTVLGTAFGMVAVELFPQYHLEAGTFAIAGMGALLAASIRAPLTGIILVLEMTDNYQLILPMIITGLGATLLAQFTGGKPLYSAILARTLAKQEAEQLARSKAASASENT
# CLC-ec1 (Escherichia coli, UniProt P37019, E148A), sequence (P37019 whole entry E148A): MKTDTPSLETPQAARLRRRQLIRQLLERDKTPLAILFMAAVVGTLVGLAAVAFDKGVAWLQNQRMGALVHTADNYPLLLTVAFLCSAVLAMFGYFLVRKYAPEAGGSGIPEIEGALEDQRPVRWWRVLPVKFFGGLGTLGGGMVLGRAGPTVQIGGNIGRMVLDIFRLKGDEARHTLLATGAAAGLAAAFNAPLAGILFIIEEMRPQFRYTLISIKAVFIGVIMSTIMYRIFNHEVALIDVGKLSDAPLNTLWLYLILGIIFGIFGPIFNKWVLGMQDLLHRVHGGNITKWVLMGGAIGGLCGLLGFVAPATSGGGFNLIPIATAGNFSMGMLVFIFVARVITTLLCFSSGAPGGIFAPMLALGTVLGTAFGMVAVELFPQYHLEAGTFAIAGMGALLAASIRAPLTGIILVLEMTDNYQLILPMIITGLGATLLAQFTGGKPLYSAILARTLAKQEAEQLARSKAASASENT
Kd (CLC-ec1 [1]),Kd (CLC-ec1 [2]),SMILES
180 µM,1000 µM,F [F^−]
–,600 µM,Cl [Cl^−]
